This is an account of results in patent US8145430B2, “Predictive scoring function for estimating binding affinity” (Schrodinger, LLC, priority 2005, dated 2012).

The test system of experiment [1] is protein-ligand complexes in the PDB. Conditions: experimental binding affinity, cited from earlier work.
Experiment [2] concerns the target Streptavidin (Streptomyces avidinii, UniProt P22629). The experiment is described as follows: Calculated versus experimental binding affinity, streptavidin and biotin (pdb 1stp), docked structure. To be noted: using a docked structure. The source says:
FIG. 8 illustrates Streptavidin in biotin (pdb 1stp). Both special hydrogen bonds in this complex, and hydrophobic enclosure of the hydrogen bonding region, are shown.
Here three correlated hydrogen bonds occur in a hydrophobically enclosed region. Up to the present time, no empirical scoring function has explained the exceptionally large binding affinity of streptavidin in biotin. Once the triple, enclosed hydrogen bonding motif is recognized and assigned an appropriate score, the deviation between calculated and experimental binding affinity, using a docked structure, is only 1.5 kcal/mole.

Experiment [3] has as its system Glur2 receptors. Conditions: series of Glur2 receptors; cited from earlier work.
The target of experiment [4] is aldose reductase (Homo sapiens, UniProt P15121). Conditions: lef3 structure of aldose reductase; cited from earlier work.
[5] abbreviates: column beside SP Score (repeat).

The structures appear in SMILES notation. Where two headings read alike, the source gives them in different places.

Streptavidin, sequence (P22629 25-183): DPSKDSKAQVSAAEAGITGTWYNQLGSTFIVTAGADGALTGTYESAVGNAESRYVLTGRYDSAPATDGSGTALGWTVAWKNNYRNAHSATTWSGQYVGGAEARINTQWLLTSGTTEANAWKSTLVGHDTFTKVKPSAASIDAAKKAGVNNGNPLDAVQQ

In the case of `CC(=O)N[C@H](C(=O)N[C@@H](Cc1ccccc1)[C@@H](O)CN(CC1CCCCC1)NC(=O)[C@@H](NC(C)=O)C(C)C)C(C)C` [1hih], the ΔG_exp in experiment [1] (setting [5]) and in experiment [1] (column beside XP Score) was -11.3 kcal/mol throughout.
For the compound `C[C@H]1O[C@H](O)[C@H](O)[C@@H](O)[C@H]1O` [7abp], the ΔG_exp in experiment [1] (setting [5]) and in experiment [1] (column beside XP Score) was -8.1 kcal/mol each time.
As for `CC(C)c1ccc(NC(=O)[C@H](Cc2ccccc2)NC(=O)[C@H](CCCCN)NC(=O)C(F)(F)F)cc1` [1elc], the ΔG_exp in experiment [1] (setting [5]) and in experiment [1] (column beside XP Score) was -9.8 kcal/mol throughout.
With `N=C(N)c1ccccc1` [1bra], the ΔG_exp in experiment [1] (setting [5]) and in experiment [1] (column beside XP Score) was -2.5 kcal/mol in each case.
`NCC1CCCCC1` [1tng]: the ΔG_exp in experiment [1] (setting [5]) and in experiment [1] (column beside XP Score) was -4 kcal/mol in each case.
Turning to `O=C(O)CCCC[C@@H]1SC[C@@H]2NC(=O)N[C@@H]21` [biotin], the “deviation between calculated and experimental binding affinity” value in experiment [2] is 1.5 kcal/mol.
For `COC(=O)[C@H](Cc1ccccc1)OP(=O)(O)[C@H](CC(C)C)NC(=O)[C@@H](NC(=O)[C@@H](NC(=O)CC(C)C)C(C)C)C(C)C` [1ppl], the ΔG_exp in experiment [1] (setting [5]) and in experiment [1] (column beside XP Score) was -11.5 kcal/mol in each case.
In the case of `N[C@@H](CCC(=O)O)C(=O)O` [Ligand 1ftj], the ΔG (experimental binding energies) in experiment [3] is 8.5 kcal/mol.
Consider `NC(=O)[C@@H]1C[C@]2(NC(=O)NC2=O)c2cc(F)ccc2O1` [fiderestat], for which the binding affinity experimentally result in experiment [4] is “low nanomolar”.
As for `CC(C)C[C@H](N)C(=O)NO` [4tln], the ΔG_exp in experiment [1] (setting [5]) and in experiment [1] (column beside XP Score) was -5.1 kcal/mol throughout.
As for `N[C@@H](Cn1cc(F)c(=O)[nH]c1=O)C(=O)O` [Ligand 1mqi], in experiment [3], the ΔG (experimental binding energies) was 11.9 kcal/mol.
As for `O=C(N[C@H]1c2ccccc2C[C@H]1O)[C@H](Cc1ccccc1)CC(O)C[C@@H](Cc1ccccc1)C(=O)N[C@H]1c2ccccc2C[C@H]1O` [4phv], the ΔG_exp in experiment [1] (setting [5]) and in experiment [1] (column beside XP Score) was -12.5 kcal/mol in each case.
In the case of `O=C(O)[C@H](O)[C@@H](O)[C@H](O)[C@H](O)COP(=O)(O)O` [1pgp], the ΔG_exp in experiment [1] (setting [5]) and in experiment [1] (column beside XP Score) was -7.8 kcal/mol in each case.
Consider `CNC(=O)C(F)(F)C(O)(O)[C@H](CC(C)C)NC(=O)[C@@H](NC(=O)[C@@H](NC(=O)CC(C)C)C(C)C)C(C)C` [1apv], for which the ΔG_exp in experiment [1] (setting [5]) and in experiment [1] (column beside XP Score) was -11.3 kcal/mol in each case.
On to `Cc1ccc(S(=O)(=O)N[C@@H](Cc2cccc(C(=N)N)c2)C(=O)N2CCCCC2)cc1` [1pph], for which the ΔG_exp in experiment [1] (setting [5]) and in experiment [1] (column beside XP Score) was -8.5 kcal/mol throughout.
On to `Cc1o[nH]c(=O)c1C[C@H](N)C(=O)O` [Ligand 1ftm], for which, in experiment [3], the ΔG (experimental binding energies) is 8.8 kcal/mol.
In the case of `O=C(O)[C@@H](O)Cc1ccccc1` [2ctc], the ΔG_exp in experiment [1] (setting [5]) and in experiment [1] (column beside XP Score) was -5.3 kcal/mol each time.
For `CN(Cc1cnc2nc(N)nc(N)c2n1)c1ccc(C(=O)N[C@@H](CCC(=O)O)C(=O)O)cc1` [4dfr], the ΔG_exp in experiment [1] (setting [5]) and in experiment [1] (column beside XP Score) was -13.2 kcal/mol each time.
In the case of `Nc1c2c(nc3ccccc13)CCCC2` [1acj], the ΔG_exp in experiment [1] (setting [5]) and in experiment [1] (column beside XP Score) was -10 kcal/mol throughout.
Take `CC12CCC(CC1=O)C2(C)C` (centres unmarked) [2cpp]: the ΔG_exp in experiment [1] (setting [5]) and in experiment [1] (column beside XP Score) was -8.3 kcal/mol throughout.
As for `CC(C)C[C@H](N[C@@H](CCc1ccccc1)C(=O)O)C(=O)N[C@@H](Cc1c[nH]c2ccccc12)C(=O)O` [1tmn], the ΔG_exp in experiment [1] (setting [5]) and in experiment [1] (column beside XP Score) was -10 kcal/mol each time.
For the compound `NCCCCc1ccccc1` [1tni], the ΔG_exp in experiment [1] (setting [5]) and in experiment [1] (column beside XP Score) was -2.3 kcal/mol each time.
For the compound `O=c1[nH]c2cc([N+](=O)[O-])c([N+](=O)[O-])cc2[nH]c1=O` [Ligand 1ftl], in experiment [3], the ΔG (experimental binding energies) was 8.3 kcal/mol.
As to `CC(=O)N[C@H]1[C@H]([C@H](O)[C@H](O)CO)OC(C(=O)O)=C[C@@H]1O` [1nnb], the ΔG_exp in experiment [1] (setting [5]) and in experiment [1] (column beside XP Score) was -7.2 kcal/mol throughout.
As for `CC1(C)S[C@H]([C@H](NC(=O)Cc2ccccc2)C(=O)NCc2ccccc2)N[C@H]1C(=O)N[C@@H](CO)Cc1ccccc1` [1htf], the ΔG_exp in experiment [1] (setting [5]) and in experiment [1] (column beside XP Score) was -11.1 kcal/mol throughout.
